Here are results for 1 molecule from PMC6657668, “Porcine Beta-Defensin 2 Provides Protection Against Bacterial Infection by a Direct Bactericidal Activity and Alleviates Inflammation via Interference With the TLR4/NF-κB Pathway” (Frontiers in Immunology, 2019).

For data set [1], the system named is LPS-induced production of cytokines. As to the kind of experiment: Serum cytokine levels of mice injected with LPS (ELISA). The following applies: 1 h, n = 6. In kind it is in vivo, mouse. As for the experimental part:
Six TG mice and six WT mice were separately injected with LPS (16 mg/kg body weight) intraperitoneally. The same number of TG mice and WT mice was injected with 100 μl of sterile PBS as a negative control. The sera from the mice in each group were collected 1 h after the injection to detect cytokines by ELISA.
The WT mice were injected with LPS alone or LPS with PBD-2 (0.5 mg/kg body weight) intraperitoneally (n = 6 each group) to detect the effect of synthetic PBD-2 on inflammation induced by LPS. The sera from the mice in each group were collected 1 h after the injection to detect the cytokines by ELISA.

The format of data set [2] is biochemical, Escherichia coli O55:B5. The settings on record: PBD-2 1, 5, and 10 μg/ml mixed with LPS, 37°C, 10 min; n = 6.
For data set [3] the following is noted: ref [11]; cited from earlier work.
Data set [4] has as its system JNK. As to the kind of experiment: Western blot of JNK and p-JNK in RAW 264.7 cells. In kind it is cell-based, mouse. The following applies: LPS 30 min with various concentrations of PBD-2 (Figure S4). As for the experimental part: RAW 264.7 cells were treated with LPS (1 μg/ml) alone or together with PBD-2 (10 μg/mL). […] Proteins were firstly analyzed with SDS-PAGE and then electro-transferred onto a PVDF (#ISEQ00010, Biosharp®, Beijing, China) membrane. The PVDF membrane was blocked with 1/100 bovine serum albumin (BSA, #V900933-100G, VETEC, Sigma-Aldrich®, St. Louis, MO, USA) at 10 μg/ml at 37°C for 2 h, washed with PBST five times, incubated with the antisera against p-p65 (# 3033), p65 (# 4764), p-ERK (# 4370), ERK (# 4695), p-p38 (# 4511), p38 (# 8690), p-JNK (# 4668), JNK (# 9258) (Cell Signaling Technology®, Danvers, MA, USA), and β-actin (# AA128, Beyotime®, Shanghai, China) at 2 μg/ml at 37°C for 2 h and washed five times again. The PVDF membrane was subsequently incubated with 1 μg/ml secondary antibody, namely, goat anti-rabbit IgG (# 7074S, Cell Signaling Technology®, Danvers, MA, USA), at 37°C for 2 h and washed five times. Lastly, immune-reactive bands were detected using an ECF Western blot system (Tanon 5200 Multi, Shanghai, China) and quantified using AlphaImager 2200 analysis software.
Supplementary file Image_4.TIF: Figure S4 Effects of PBD-2 on ERK, p38, and JNK signaling pathways. Cells were treated with LPS for 30 min with or without various concentrations of PBD-2. […] The signal intensity of each band was quantified (B–D). […]

Where [5] appears, read: PBD-2 expressed in TG mice, LPS 16 mg/kg i.p., vs WT.
Setting [6] is: synthetic PBD-2 0.5 mg/kg i.p. with LPS 16 mg/kg, WT mice, vs LPS alone.

The structures appear in SMILES notation. Where a SMILES comes first, the peptide text is derived from it.

With `CC[C@H](C)[C@H](NC(=O)[C@@H]1CSSC[C@@H]2NC(=O)[C@@H]3CCCN3C(=O)[C@H](CO)NC(=O)[C@H](Cc3ccccc3)NC(=O)[C@H](CC(N)=O)NC(=O)[C@@H]3CSSC[C@H](NC(=O)[C@H]([C@@H](C)O)NC(=O)CNC(=O)[C@H](CCC(=O)O)NC(=O)[C@H]([C@@H](C)CC)NC(=O)[C@H](CCCNC(=N)N)NC(=O)[C@H](CC(N)=O)NC(=O)[C@H](Cc4ccccc4)NC(=O)[C@H](CC(C)C)NC(=O)[C@@H]4CCCN4C2=O)C(=O)N[C@@H](Cc2ccc(O)cc2)C(=O)N[C@@H](CO)C(=O)NCC(=O)N[C@@H](CCCCN)C(=O)N[C@@H](C)C(=O)N[C@@H](CCCCN)C(=O)N[C@@H](CSSC[C@H](NC(=O)[C@@H](NC(=O)[C@H](Cc2ccc(O)cc2)NC(=O)[C@H](Cc2c[nH]cn2)NC(=O)[C@@H](N)CC(=O)O)[C@@H](C)CC)C(=O)N[C@@H](C)C(=O)N[C@@H](CCCCN)C(=O)N[C@@H](CCCCN)C(=O)NCC(=O)NCC(=O)N[C@@H]([C@@H](C)O)C(=O)N3)C(=O)N1)C(=O)N[C@@H](CCCNC(=N)N)C(=O)O` [PBD-2, Porcine beta-defensin 2] (HELM PEPTIDE1{D.H.Y.I.C.A.K.K.G.G.T.C.N.F.S.P.C.P.L.F.N.R.I.E.G.T.C.Y.S.G.K.A.K.C.C.I.R}$PEPTIDE1,PEPTIDE1,5:R3-34:R3|PEPTIDE1,PEPTIDE1,12:R3-27:R3|PEPTIDE1,PEPTIDE1,17:R3-35:R3$$$V2.0; N-terminus and C-terminus assumed), in data set [1] (setting [5]), the “LPS-induced IL-1β in serum” value is recorded as “significantly lower in the TG mice than in the WT mice (p < 0.05)”, the “LPS-induced IL-6 in serum” value is listed as “significantly lower in the TG mice than in the WT mice (p < 0.05)”, the “LPS-induced IL-12 in serum” value is on record as “significantly lower in the TG mice than in the WT mice (p < 0.05)” and the “LPS-induced TNF-α in serum” value is reported as “significantly lower in the TG mice than in the WT mice (p < 0.05)”. In addition, in data set [1] (setting [6]), the “LPS-induced IL-1β in serum” value was “significantly lower levels of secreted TNF-α, IL-6, IL-1β, and IL-12 than those injected with LPS alone (p < 0.05)”; the “LPS-induced IL-6 in serum” value is “significantly lower levels of secreted TNF-α, IL-6, IL-1β, and IL-12 than those injected with LPS alone (p < 0.05)”; the “LPS-induced IL-12 in serum” value is “significantly lower levels of secreted TNF-α, IL-6, IL-1β, and IL-12 than those injected with LPS alone (p < 0.05)”; the “LPS-induced TNF-α in serum” value is “significantly lower levels of secreted TNF-α, IL-6, IL-1β, and IL-12 than those injected with LPS alone (p < 0.05)”. In addition, the “endotoxic activity of LPS” value in data set [2] is “did not affect the endotoxic activity of LPS”. In addition, the hemolytic activity entry in data set [3] was “limited hemolytic activity”. The “LPS-induced phosphorylation of JNK” value in data set [4] is “did not affect the LPS-induced phosphorylation of ERK, p38, and JNK”.
